The results in this text go back to publication PMC9968138, “Design, Synthesis, and Biological Evaluation of a Small-Molecule PET Agent for Imaging PD-L1 Expression” (Pharmaceuticals, 2023).

Series [1] in a line: MTT cell viability assay, PD-L1+ cells. It counts as cell-based. To be noted: human, A375-hPD-L1 cells (PD-L1-transfected human melanoma A375), LP-F 0-100 μM. The method, then:
(§1) Human melanoma cell line A375 (PD-L1^-) and human PD-L1 gene-transfected A375 cells (A375-hPD-L1, PD-L1^+) were cultured according to previous work.
(§2) Each well was seeded with 1 × 10^4 cancer cells in 96-well plates. LP-F dissolved in DMEM with gradient concentration (0, 12.5, 25, 50 and 100 μM) was added to each well at triple parallels, respectively, and incubated for 24 h. Then, MTT (5 mg/mL, 20 μL/well) was added and incubated for 4 h. 150 μL DMSO was added each well and shaken vigorously for 10 min to dissolve MTT crystallization. The absorbance of each sample was detected at 490 nm by ELISA, and percent cell viability was calculated based on Eq.: Percentage = sample well/reference well × 100%

Series [2] can be described thus: MTT cell viability assay, PD-L1- cells. To be noted: human, A375 cells (human melanoma, PD-L1 negative), LP-F 0-100 μM. The series is classed as cell-based. The method, then:
as §1, §2

The nature of series [3]: Partition coefficient test (1-octanol/water). The series is classed as physicochemical. The method, then:
Amounts of 0.37 MBq [^18F]LP-F, 1000 μL water and 1000 μL 1-octanol were mixed in a tube. The mixture was thoroughly shaken for 5 min. After centrifugation, 500 μL water was withdrawn from water phase and its radioactivity was measured by a gamma counter. An equal volume of 1-octanol was withdrawn from the organic phase and measured. The partition coefficient (Log P) was calculated based on Eq. Log P = Lg(Concentration of [^18F]LP-F in 1-octanol/Concentration of [^18F]LP-F in water)
Then, 500 μL water and 500 μL 1-octanol were added to the above tube to replenish the water and the organic phase. The two-phase system was shaken again. Water and the organic phase were sampled and measured and Log P was calculated again. Repeat two more times.

A short description of series [4]: In vitro stability assay in PBS (radio-HPLC). The series is classed as physicochemical. To be noted: PBS pH 7.4, 37 °C, 4 h. The method, then:
(§3) In order to investigate the in vitro stability of the radioactive probe, [^18F]LP-F (~14.8 MBq, 40 μL) was incubated in PBS (pH 7.4, 360 μL) at 37 °C for 4 h. [^18F]LP-F (~14.8 MBq, 40 μL) was also mixed with mouse serum (360 μL) and maintained at 37 °C for 4 h. Such PBS solution was subjected to stability analysis using radio-HPLC at 0, 1, 2 and 4 h. A 30 μL sample from the above mouse serum after protein precipitation with 30 μL acetonitrile was also subjected to stability analysis at 0, 1, 2 and 4 h.

Series [5] is described as follows: In vitro stability assay in mouse serum (radio-HPLC). It counts as in vitro ADME. The following applies: 37 °C, 4 h. The method, then:
as §3

The subject of another series is A375-hPD-L1 cells. Kind of series: Cell uptake of the tracer, PD-L1+ cells. The following applies: for cell uptake after blockade by LP-F: PD-L1+ cells blocked with 25 μM LP-F; for cell uptake: PD-L1+ cells. It counts as cell-based, human. The method, then:
as §1
(§4) A375 cells and A375-hPD-L1 cells (1 × 10^6) were added to each tube, separately. [^18F]LP-F (37 kBq/tube) diluted in DMEM was added and incubated at 37 °C for different periods (30, 60, 120, and 240 min). PD-L1^+ cells were incubated with 100 μL 25 μM LP-F for 30 min ahead to block PD-L1^+ cells and then incubated with [^18F]LP-F (37 kBq/tube) at same conditions. After incubation and wash, the cells’ radioactivity was measured.

The subject of the next series is A375 cells. Kind of series: Cell uptake of the tracer, PD-L1- cells. It counts as cell-based, human. The following applies: 4 h. The method, then:
as §1, §4

The next series deals with T1, PD-L1 (Homo sapiens, UniProt Q9NZQ7).
T1 construct: expressed in transfected cells; host or cells: A375 human melanoma cells transfected with the human PD-L1 gene (A375-hPD-L1)
The series can be described thus: Saturation binding assay on PD-L1+ cells. The following applies: PD-L1+ cell, one-site model, read-out: dissociation constant (Kd). The method, then: as §1
PD-L1^+ cells (2 × 10^5) were added to each tube and incubated with the gradient of concentration of [^18F]LP-F dissolved in DMEM (0 to 128 nM) at 37 °C for 1 h. After incubation, the cells were centrifuged and washed by PBS twice and then were measured for radioactivity by a γ counter as total bound value. For the non-specific bound value, PD-L1^+ cells (2 × 10^5) were added to each tube and incubated with LP-F (50 μM) dissolved in DMEM for half an hour in advance and then incubated with above concentrations of [^18F]LP-F. After centrifugation and wash, the radioactivity was detected. The specific binding value is obtained by subtracting non-specific bound value from total bound value. The equilibrium dissociation constant (Kd) was calculated by non-linear fit in a one-site model through specific binding values and concentrations of [^18F]LP-F.

The subject of the next series is A375-hPD-L1 tumor. The series can be described thus: Micro-PET imaging, PD-L1+ tumor. It counts as in vivo, mice. The source says:
(§5) Female BALB/c nude mice at age of 5~7 weeks were inoculated subcutaneously with 1 × 10^6 A375-hPD-L1 cells in saline at the left flank and 1 × 10^6 A375 cells at the right flank in the same mouse in order to eliminate individual differences. Animal study can be performed in accordance with the principles laid out by the ethical committee of Jiangsu Institute of Nuclear Medicine.
(§6) A375 (right)/A375-hPD-L1 (left) bilateral tumor-bearing mice (n = 3) were anesthetized and then intravenously injected with [^18F] LP-F (~7.4 MBq) dissolved in saline (200 μL). Dynamic scanning was performed for one hour. ASIPro software (Siemens) was applied to process the PET images. Dynamic images were reconstructed in OSEM3D/MAP algorithm and split into twelve frames. Quantification and analysis of region of interest (ROI) in tumors and organs were carried out.

The subject of a further series is A375 tumor. Kind of series: Micro-PET imaging, PD-L1- tumor. It counts as in vivo, mice.
Description: as §5, §6

Series [6] in a line: Micro-PET imaging, non-target tissues (muscle, bone). The following applies: up to 60 min. The series is classed as in vivo, mice.
Description: as §5, §6

The structures appear in SMILES notation. “And” between values parts separate entries of the source, which are not always exact repeats. Equal values may be shown once. Read-outs that look alike come from different tables or passages of the source.

T1 sequence (Q9NZQ7 19-290): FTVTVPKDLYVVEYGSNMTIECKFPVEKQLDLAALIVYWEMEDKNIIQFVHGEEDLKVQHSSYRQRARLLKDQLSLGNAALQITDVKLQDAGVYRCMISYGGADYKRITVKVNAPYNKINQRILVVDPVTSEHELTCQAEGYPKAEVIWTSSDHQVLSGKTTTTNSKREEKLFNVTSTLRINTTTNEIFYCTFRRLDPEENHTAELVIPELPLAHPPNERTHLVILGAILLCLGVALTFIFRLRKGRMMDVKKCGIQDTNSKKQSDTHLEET

Take `Cc1c(COc2cc(OCc3cccc(C#N)c3)c(CN3CCN(CCOCCOCCOCCF)CC3)cc2Cl)cccc1-c1ccc2c(c1)OCCO2` [LP-F]: the viability at 24 h in [1] and in series [2] was > 90% in each case.
In the case of `Cc1c(COc2cc(OCc3cccc(C#N)c3)c(CN3CCN(CCOCCOCCOCC[18F])CC3)cc2Cl)cccc1-c1ccc2c(c1)OCCO2` [[^18F]LP-F], the logP in series [3] (mean ± SD, read-out: partition coefficient (Log P)) was 2.18 ± 0.16; in series [3] (trials 1-3, read-out: Log P (single trial)), 2.37. Further, the “Log P (single trial)” value in series [3] (trials 1-3) is 2.08 and 2.10. In addition, the “stability in PBS” value in [4] is “high stability”. Also, the “stability in mouse serum” value in series [5] was “high stability”. The “cell uptake after blockade by LP-F” value in the series on A375-hPD-L1 cells (0.5 h) is reported as 1.42 ± 0.03 %AD; in the series with A375-hPD-L1 cells (4 h), 1.72 ± 0.02 %AD. In addition, the cell uptake with A375-hPD-L1 cells (30 min) stood at 3.66 ± 0.20 %AD; in the series with A375-hPD-L1 cells (4 h), 3.64 ± 0.19 %AD. The same molecule returned a maximum cell uptake in the series with A375 cells of 1.41 ± 0.09 %AD. Also, the Kd on PD-L1 amounted to 226 nM. Further, in the series with A375-hPD-L1 tumor (50 min), the “ratio of PD-L1+ tumor uptake to PD-L1- tumor uptake” value came out at 2.95 ± 0.39 times. The “tumor-to-muscle ratio (T/M)” value is given as 2.08 ± 0.38 in the series with A375-hPD-L1 tumor (PD-L1+ tumor, 30 min post injection); 2.20 ± 0.29 in the series on A375-hPD-L1 tumor (PD-L1+ tumor, 50 min); 0.82 ± 0.24 in the series with A375 tumor (10 min); 0.75 ± 0.19 in the series on A375 tumor (50 min); “below 1” in the series with A375 tumor (all the time). Besides, the maximum tumor uptake in the series on A375-hPD-L1 tumor (PD-L1+ tumor, 50 min) came to 3.53 ± 0.46 %ID/mL; in the series on A375 tumor (60 min), 1.23 ± 0.39 %ID/mL. Also, the “activity on the bone (defluorination, in vivo stability)” value in series [6] is “no obvious activity on the bone”.
